Data: patent US10206394B2, “Herbicidal compounds” (Syngenta Participations AG, priority 2014, dated 2019)
Like-named read-outs stand apart in the source and are kept apart here.

Assays:
Assay in all cases: Glasshouse assay for herbicidal activity (pre- and post-emergence), percentage phytotoxicity
Format in all cases: in vivo
Avena fatua (AVEFA) = settings: Avena fatua
Method in brief: (§1)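 Visually rated damage, 0–100%. PRE spray 1 d after sowing, scored 20 DAA; POST spray ~12 d, scored 15 DAA. Glasshouse at 65% humidity, 16 h day.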

[1] = system: Alopecurus myosuroides (ALOMY); settings: Alopecurus myosuroides
Method in brief: as §1

Lolium perenne (LOLPE) = settings: Lolium perenne
Method in brief: as §1

[2] = system: Echinochloa crus-galli (ECHCG); settings: Echinochloa crus-galli
Method in brief: as §1

[3] = post-emergence, 360 h, Rate 250 g/ha, post-emergence, visual assessment 15 DAA, 100%=total damage, 0%=no damage, read-out: Post-emergence herbicidal activity (percentage phytotoxicity) AVEFA POST
[4] = pre-emergence, 480 h, Rate 250 g/ha, pre-emergence, visual assessment 20 DAA, 100%=total damage, 0%=no damage, read-out: Pre-emergence herbicidal activity (percentage phytotoxicity) AVEFA PRE
[5] = post-emergence, 360 h, Rate 250 g/ha, post-emergence, visual assessment 15 DAA, 100%=total damage, 0%=no damage, read-out: Post-emergence herbicidal activity (percentage phytotoxicity) ALOMY POST
[6] = pre-emergence, 480 h, Rate 250 g/ha, pre-emergence, visual assessment 20 DAA, 100%=total damage, 0%=no damage, read-out: Pre-emergence herbicidal activity (percentage phytotoxicity) ALOMY PRE
[7] = post-emergence, 360 h, Rate 250 g/ha, post-emergence, visual assessment 15 DAA, 100%=total damage, 0%=no damage, read-out: Post-emergence herbicidal activity (percentage phytotoxicity) LOLPE POST
[8] = pre-emergence, 480 h, Rate 250 g/ha, pre-emergence, visual assessment 20 DAA, 100%=total damage, 0%=no damage, read-out: Pre-emergence herbicidal activity (percentage phytotoxicity) LOLPE PRE
[9] = post-emergence, 360 h, Rate 250 g/ha, post-emergence, visual assessment 15 DAA, 100%=total damage, 0%=no damage, read-out: Post-emergence herbicidal activity (percentage phytotoxicity) ECHCG POST
[10] = pre-emergence, 480 h, Rate 250 g/ha, pre-emergence, visual assessment 20 DAA, 100%=total damage, 0%=no damage, read-out: Pre-emergence herbicidal activity (percentage phytotoxicity) ECHCG PRE
[11] = post-emergence, 360 h, post-emergence, 250 g/ha, 15 DAA, visual score (100%=total damage; 0%=no damage), read-out: AVEFA POST herbicidal activity (percentage phytotoxicity)
[12] = pre-emergence, 480 h, pre-emergence, 250 g/ha, 20 DAA, visual score (100%=total damage; 0%=no damage), read-out: AVEFA PRE herbicidal activity (percentage phytotoxicity)
[13] = post-emergence, 360 h, post-emergence, 250 g/ha, 15 DAA, visual score (100%=total damage; 0%=no damage), read-out: ALOMY POST herbicidal activity (percentage phytotoxicity)
[14] = pre-emergence, 480 h, pre-emergence, 250 g/ha, 20 DAA, visual score (100%=total damage; 0%=no damage), read-out: ALOMY PRE herbicidal activity (percentage phytotoxicity)
[15] = post-emergence, 360 h, post-emergence, 250 g/ha, 15 DAA, visual score (100%=total damage; 0%=no damage), read-out: LOLPE POST herbicidal activity (percentage phytotoxicity)
[16] = pre-emergence, 480 h, pre-emergence, 250 g/ha, 20 DAA, visual score (100%=total damage; 0%=no damage), read-out: LOLPE PRE herbicidal activity (percentage phytotoxicity)
[17] = post-emergence, 360 h, post-emergence, 250 g/ha, 15 DAA, visual score (100%=total damage; 0%=no damage), read-out: ECHCG POST herbicidal activity (percentage phytotoxicity)
[18] = pre-emergence, 480 h, pre-emergence, 250 g/ha, 20 DAA, visual score (100%=total damage; 0%=no damage), read-out: ECHCG PRE herbicidal activity (percentage phytotoxicity)

Row | SMILES | pest or weed control at 250 g/ha (Avena fatua (AVEFA); [3]) | pest or weed control at 250 g/ha (Avena fatua (AVEFA); [4]) | pest or weed control at 250 g/ha [1, 5] | pest or weed control at 250 g/ha [1, 6] | pest or weed control at 250 g/ha (Lolium perenne (LOLPE); [7]) | pest or weed control at 250 g/ha (Lolium perenne (LOLPE); [8]) | pest or weed control at 250 g/ha [2, 9] | pest or weed control at 250 g/ha [2, 10] | pest or weed control at 250 g/ha (Avena fatua (AVEFA); [11]) | pest or weed control at 250 g/ha (Avena fatua (AVEFA); [12]) | pest or weed control at 250 g/ha [1, 13] | pest or weed control at 250 g/ha [1, 14] | pest or weed control at 250 g/ha (Lolium perenne (LOLPE); [15]) | pest or weed control at 250 g/ha (Lolium perenne (LOLPE); [16]) | pest or weed control at 250 g/ha [2, 17] | pest or weed control at 250 g/ha [2, 18]
1 | Cc1cc(-c2ccc(F)cn2)cc(C)c1C1C(=O)CC(CC(=O)NCc2cccs2)C1=O (stereo not shown) [Compound B397] | 90% | 80% | 90% | 70% | 90% | 70% | 100% | 100% | – | – | – | – | – | – | – | –
2 | Cc1ccc(CNC(=O)CC2CC(=O)C(c3c(C)cc(-c4ccc(F)cn4)cc3C)C2=O)cc1 (stereo not shown) [Compound B398] | 80% | 40% | 80% | 50% | 90% | 70% | 100% | 70% | – | – | – | – | – | – | – | –
3 | Cc1cc(-c2ccc(F)cn2)cc(C)c1C1C(=O)CC(CC(=O)NC/C=C/Cl)C1=O (stereo not shown) [Compound B400] | 100% | 100% | 100% | 100% | 90% | 100% | 100% | 100% | – | – | – | – | – | – | – | –
4 | Cc1cc(-c2ccc(F)cn2)cc(C)c1C1C(=O)CC(CC(=O)NCc2cccc(Cl)c2)C1=O (stereo not shown) [Compound B401] | 100% | 70% | 90% | 80% | 90% | 90% | 100% | 80% | – | – | – | – | – | – | – | –
5 | Cc1cc(-c2ncc(F)cc2F)cc(C)c1C1C(=O)CC(CC(=O)NOCc2ccccc2)C1=O (stereo not shown) [Compound B402] | 100% | 70% | 90% | 60% | 90% | 80% | 100% | 80% | – | – | – | – | – | – | – | –
6 | Cc1cc(-c2ncc(F)cc2F)cc(C)c1C1C(=O)CC(CC(=O)NO)C1=O (stereo not shown) [Compound B403] | 100% | 50% | 90% | 60% | 80% | 20% | 100% | 0% | – | – | – | – | – | – | – | –
7 | C=Cc1cc(-c2ncc(F)cn2)cc(C)c1C1C(=O)CC(CC(=O)NC(C)(C)C)C1=O (stereo not shown) [Compound B404] | 100% | 70% | 90% | 80% | 100% | 80% | 100% | 90% | – | – | – | – | – | – | – | –
8 | Cc1cc(-c2ncc(F)cn2)cc(Cl)c1C1C(=O)CC(CC(=O)NC(C)(C)C)C1=O (stereo not shown) [Compound B405] | 100% | 90% | 100% | 90% | 100% | 100% | 100% | 100% | – | – | – | – | – | – | – | –
9 | COc1ccc(C(=O)OC2=C(c3c(C)cc(-c4ncc(Cl)cn4)cc3C)C(=O)C(CC(=O)NC(C)(C)C)C2)cc1 (stereo not shown) [Compound P1, [4-[2-(tert-butylamino)-2-oxo-ethyl]-2-[4-(5-chloropyrimidin-2-yl)-2,6-dimethyl-phenyl]-3-oxo-cyclopenten-1-yl] 4-methoxybenzoate] | – | – | – | – | – | – | – | – | 100% | 100% | 100% | 100% | 100% | 100% | 100% | 100%
10 | Cc1cc(-c2ncc(Cl)cn2)cc(C)c1C1=C(OC(=O)c2ccc(F)cc2)CC(CC(=O)NC(C)(C)C)C1=O (stereo not shown) [Compound P2] | – | – | – | – | – | – | – | – | 100% | 90% | 100% | 90% | 100% | 100% | 100% | 100%
11 | Cc1cc(-c2ncc(Cl)cn2)cc(C)c1C1=C(OC(=O)C(C)(C)C)CC(CC(=O)NC(C)(C)C)C1=O (stereo not shown) [Compound P3] | – | – | – | – | – | – | – | – | 90% | 80% | 100% | 100% | 100% | 100% | 100% | 100%
12 | CCOC(=O)OC1=C(c2c(C)cc(-c3ncc(Cl)cn3)cc2C)C(=O)C(CC(=O)NC(C)(C)C)C1 (stereo not shown) [Compound P4] | – | – | – | – | – | – | – | – | 100% | 90% | 90% | 90% | 100% | 100% | 100% | 100%
13 | CCSC(=O)OC1=C(c2c(C)cc(-c3ncc(Cl)cn3)cc2C)C(=O)C(CC(=O)NC(C)(C)C)C1 (stereo not shown) [Compound P5] | – | – | – | – | – | – | – | – | 100% | 90% | 100% | 100% | 100% | 100% | 100% | 100%
14 | CCOCOC1=C(c2c(C)cc(-c3ncc(Cl)cn3)cc2C)C(=O)C(CC(=O)NC(C)(C)C)C1 (stereo not shown) [Compound P6] | 90% | 100% | 100% | 100% | 100% | 100% | 100% | 100% | – | – | – | – | – | – | – | –
15 | Cc1cc(-c2ncc(Cl)cn2)cc(C)c1C1=C(OC(=O)N2CCCC2)C(CC(=O)NC(C)(C)C)CC1=O (stereo not shown) [Compound P7] | 60% | 10% | 70% | 0% | 40% | 30% | 80% | 50% | – | – | – | – | – | – | – | –
16 | Cc1cc(-c2ncc(Cl)cn2)cc(C)c1C1=C(OC(=O)N2CCCC2)CC(CC(=O)NC(C)(C)C)C1=O (stereo not shown) [Compound P8] | 80% | 10% | 70% | 30% | 70% | 50% | 90% | 70% | – | – | – | – | – | – | – | –
17 | COCCCN(C(=O)CC1CC(OC(=O)C(C)(C)C)=C(c2c(C)cc(C)cc2C)C1=O)C(=O)C(C)(C)C (stereo not shown) [Compound P9] | 80% | 60% | 80% | 90% | 80% | 90% | 80% | 90% | – | – | – | – | – | – | – | –
